Values after ≈ are worked out from the molar mass of the structure shown.
Columns and labels:
[1] = test system: gram-positive and gram-negative bacteria; assay: Antibacterial activity (in words); type: cell-based; conditions: for antibacterial activity compared with parent or reference substance: sensitive (and resistant) bacteria
Experimental: (§1) [α]D^22 + 38°, (c 0.85, water).

[2] = test system: Escherichia coli K-12 ML 1629; assay: Minimal inhibitory concentration, agar dilution streak method; type: cell-based; conditions: K12ML1629, nutrient agar, 37° C, 18 hours, read-out: Minimal inhibitory concentration
Experimental: (§2) *Agar Agar dilution streak method (nutrient agar, 37° C, 18 hours)
(§3) *Agar dilution streak method (nutrient agar, 37° C, 18 hours).

[3] = test system: Escherichia coli K-12 LA 290 R 64; assay: as above; type: cell-based; conditions: nutrient agar, 37° C, 18 hours, read-out: Minimal inhibitory concentration
Experimental: as §2, §3

[4] = test system: Escherichia coli K-12 W 677; assay: as above; type: cell-based; conditions: K12W677, nutrient agar, 37° C, 18 hours, read-out: Minimal inhibitory concentration
Experimental: as §2, §3

[5] = test system: Pseudomonas aeruginosa No.12; assay: as above; type: cell-based; conditions: nutrient agar, 37° C, 18 hours, read-out: Minimal inhibitory concentration
Experimental: as §2, §3

[6] = test system: Pseudomonas aeruginosa GN 315; assay: as above; type: cell-based; conditions: GN315, nutrient agar, 37° C, 18 hours, read-out: Minimal inhibitory concentration
Experimental: as §2, §3

[7] = test system: Klebsiella pneumoniae type 22 #3038; assay: as above; type: cell-based; conditions: for MIC: Klebsiella pneumoniae, nutrient agar, 37° C, 18 hours; for effectiveness against Klebsiella pneumoniae type 22 #3038: strain resistant to butirosin B
Experimental: as §2, §3

[8] = test system: Escherichia coli K-12 JR 66/W 677; assay: as above; type: cell-based; conditions: for MIC: Escherichia coli, 18 h, read-out: Minimal inhibitory concentration; for effectiveness against Escherichia coli K-12 JR 66/W 677: strain resistant to butirosin B
Experimental: as §2, §3

[9] = test system: Pseudomonas aeruginosa A 3; assay: as above; type: cell-based; conditions: A3, nutrient agar, 37° C, 18 hours, read-out: Minimal inhibitory concentration
Experimental: as §2, §3

[10] = test system: Pseudomonas aeruginosa TI-13; assay: as above; type: cell-based; conditions: TI13, nutrient agar, 37° C, 18 hours, read-out: Minimal inhibitory concentration
Experimental: as §2, §3

[11] = test system: Escherichia coli K-12 LA 290 R 56; assay: as above; type: cell-based; conditions: 18 h, read-out: Minimal inhibitory concentration
Experimental: as §2, §3

[12] = test system: Escherichia coli K-12 LA 290 R 55; assay: as above; type: cell-based; conditions: 18 h, read-out: Minimal inhibitory concentration
Experimental: as §2, §3

[13] = test system: Escherichia coli K-12 ML 1630; assay: as above; type: cell-based; conditions: K12ML1630, nutrient agar, 37° C, 18 hours, read-out: Minimal inhibitory concentration
Experimental: as §2, §3

[14] = test system: Mycobacterium smegmatis ATCC 607; assay: as above; type: cell-based; conditions: Mycolicibacterium smegmatis, ATCC607; nutrient agar, 37° C, 48 hours; read-out: Minimal inhibitory concentration
Escherichia coli NIHJ = assay: as above; type: cell-based; conditions: nutrient agar, 37° C, 18 hours
Experimental: as §1, §2, §3

[15] = test system: Klebsiella pneumoniae PCI 602; assay: as above; type: cell-based; conditions: PCI602, nutrient agar, 37° C, 18 hours
Experimental: as §1, §2, §3

Proteus rettgeri GN 466 = assay: as above; type: cell-based; conditions: Providencia rettgeri, GN466; nutrient agar, 37° C, 18 hours
Experimental: as §1, §2, §3

Proteus rettgeri GN 311 = assay: as above; type: cell-based; conditions: Providencia rettgeri, GN311; nutrient agar, 37° C, 18 hours
Experimental: as §1, §2, §3

[16] = test system: Escherichia coli K-12 R-5; assay: as above; type: cell-based; conditions: K12R5, nutrient agar, 37° C, 18 hours
Experimental: as §1, §2, §3

[17] = test system: Bacillus subtilis NRRL B-558; assay: as above; type: cell-based; conditions: NRRLB558, nutrient agar, 37° C, 18 hours
Experimental: as §1, §2, §3

Salmonella typhosa T-63 = assay: as above; type: cell-based; conditions: Salmonella enterica, nutrient agar, 37° C, 18 hours
Experimental: as §1, §2, §3

[18] = test system: Escherichia coli J 5 R 11-2; assay: as above; type: cell-based; conditions: J5R112, 18 h, read-out: Minimal inhibitory concentration
Experimental: as §1, §2, §3

Sarcina lutea PCI 1001 = assay: as above; type: cell-based; conditions: Micrococcus luteus, PCI1001; nutrient agar, 37° C, 18 hours; read-out: Minimal inhibitory concentration
Experimental: as §1, §2, §3

[19] = test system: Escherichia coli K-12 C 600 R 135; assay: as above; type: cell-based; conditions: 18 h, read-out: Minimal inhibitory concentration
Experimental: as §1, §2, §3

[20] = test system: Pseudomonas aeruginosa 99; assay: as above; type: cell-based; conditions: nutrient agar, 37° C, 18 hours, read-out: Minimal inhibitory concentration
Experimental: as §1, §2, §3

mice = assay: Acute intravenous toxicity (LD50) in mice; conditions: in words
in vivo = conditions: mouse, iv
[21] = test system: Escherichia coli K-12 ML 1410; assay: Minimal inhibitory concentration, agar dilution streak method; type: cell-based; conditions: K12ML1410, nutrient agar, 37° C, 18 hours, read-out: Minimal inhibitory concentration
Experimental: as §2, §3

[22] = test system: Staphylococcus aureus FDA 209P; assay: as above; type: cell-based; conditions: FDA209P, nutrient agar, 37° C, 18 hours, read-out: Minimal inhibitory concentration
Experimental: as §2, §3

[23] = test system: Escherichia coli K-12 ML 1410 R 81; assay: as above; type: cell-based; conditions: 18 h, read-out: Minimal inhibitory concentration
Experimental: as §2, §3

Escherichia coli K-12 = assay: as above; type: cell-based; conditions: K12, nutrient agar, 37° C, 18 hours, read-out: Minimal inhibitory concentration
Experimental: as §2, §3

[24] = test system: kanamycin-resistant strains; conditions: cited from earlier work

Row | Compound | MIC [2] | MIC [3] | MIC [4] | MIC [5] | MIC [6] | MIC [7] | MIC [9] | MIC [10] | MIC [11] | MIC [12] | MIC [13] | MIC [14] | MIC (Escherichia coli NIHJ) | MIC [15] | MIC (Proteus rettgeri GN 466) | MIC (Proteus rettgeri GN 311) | MIC [16] | MIC [17] | MIC (Salmonella typhosa T-63) | MIC [18] | also measured
1 | NCC[C@H](O)C(=O)N[C@@H]1C[C@H](N)[C@@H](O[C@H]2O[C@H](CN)CC[C@H]2N)[C@H](O)[C@H]1O [AHB-dideoxyneamine, 1-N-[(S)-4-amino-2-hydroxybutyryl]-3',4'-dideoxyneamine] | 3.12 µg/mL (≈ 7.97 µM) | 3.12 µg/mL (≈ 7.97 µM) | 3.12 µg/mL (≈ 7.97 µM) | 6.25 µg/mL (≈ 16 µM) | > 100 µg/mL | 12.5 µg/mL (≈ 31.9 µM) | 6.25 µg/mL (≈ 16 µM) | 6.25 µg/mL (≈ 16 µM) | 3.12 µg/mL (≈ 7.97 µM) | 3.12 µg/mL (≈ 7.97 µM) | 3.12 µg/mL (≈ 7.97 µM) | 6.25 µg/mL (≈ 16 µM) | 3.12 µg/mL (≈ 7.97 µM) | 6.25 µg/mL (≈ 16 µM) | 12.5 µg/mL (≈ 31.9 µM) | 25 µg/mL (≈ 63.9 µM) | 50 µg/mL (≈ 128 µM) | < 0.39 µg/mL | 1.56 µg/mL (≈ 3.98 µM) | 6.25 µg/mL (≈ 16 µM) | antibacterial activity compared with parent or reference substance [1]: higher antibacterial activity than that of the parent substance, 3',4'-dideoxyneamine, against both sensitive and resistant bacteria; antibacterial activity ([1]; various gram-positive and gram-negative bacteria, including resistant strains): exhibits a antibacterial activity against various gram-positive and gram-negative bacteria, including the kanamycin-resistant strains; MIC [8]: 12.5 µg/mL (≈ 31.9 µM); MIC (Sarcina lutea PCI 1001): 25 µg/mL (≈ 63.9 µM); MIC [19]: 12.5 µg/mL (≈ 31.9 µM); MIC [20]: 25 µg/mL (≈ 63.9 µM); toxicity (mice): lower toxicity to animals and men; LD50 (in vivo): > 100 mg/kg
2 | NCC[C@H](O)C(=O)N[C@@H]1C[C@H](N)[C@@H](O[C@H]2O[C@H](CN)CC[C@H]2N)[C@H](O[C@@H]2O[C@H](CO)[C@@H](O)[C@H]2O)[C@H]1O [AHB-dideoxyribostamycin, 1-N-[(S)-4-amino-2-hydroxybutyryl]-3',4'-dideoxyribostamycin] | 1.56 µg/mL (≈ 2.98 µM) | 1.56 µg/mL (≈ 2.98 µM) | 0.78 µg/mL (≈ 1.49 µM) | 6.25 µg/mL (≈ 11.9 µM) | > 100 µg/mL | 3.12 µg/mL (≈ 5.96 µM) | 6.25 µg/mL (≈ 11.9 µM) | 12.5 µg/mL (≈ 23.9 µM) | < 0.39 µg/mL | 1.56 µg/mL (≈ 2.98 µM) | 0.78 µg/mL (≈ 1.49 µM) | < 0.39 µg/mL | 1.56 µg/mL (≈ 2.98 µM) | 0.78 µg/mL (≈ 1.49 µM) | 3.12 µg/mL (≈ 5.96 µM) | 12.5 µg/mL (≈ 23.9 µM) | 6.25 µg/mL (≈ 11.9 µM) | < 0.39 µg/mL | 0.39 µg/mL (≈ 0.745 µM) | < 0.39 µg/mL | antibacterial activity compared with parent or reference substance [1]: strongly enhanced antibacterial activity as compared with that of ribostamycin and 3',4'-dideoxyribostamycin and was comparable to that of butirosin B; effectiveness against Klebsiella pneumoniae type 22 #3038 [7]: effective; effectiveness against Escherichia coli K-12 JR 66/W 677 [8]: effective; MIC [21]: 0.78 µg/mL (≈ 1.49 µM); MIC [22]: 1.56 µg/mL (≈ 2.98 µM); MIC [23]: 1.56 µg/mL (≈ 2.98 µM); MIC (Escherichia coli K-12): 1.56 µg/mL (≈ 2.98 µM); MIC (Sarcina lutea PCI 1001): 25 µg/mL (≈ 47.7 µM); MIC [19]: 0.78 µg/mL (≈ 1.49 µM); MIC [20]: 25 µg/mL (≈ 47.7 µM); LD50 (in vivo): > 100 mg/kg
3 | NCC[C@H](O)C(=O)N[C@@H]1C[C@H](N)[C@@H](O[C@H]2O[C@H](CN)[C@@H](O)[C@H](O)[C@H]2N)[C@H](O[C@@H]2O[C@H](CO)[C@@H](O)[C@H]2O)[C@H]1O [Butirosin B, 1-N-[(S)-α-hydroxy-γ-amino-n-butyryl]-ribostamycin] | 1.56 µg/mL (≈ 2.81 µM) | 0.78 µg/mL (≈ 1.4 µM) | 0.39 µg/mL (≈ 0.702 µM) | 6.25 µg/mL (≈ 11.2 µM) | > 100 µg/mL | > 100 µg/mL | 3.12 µg/mL (≈ 5.62 µM) | 25 µg/mL (≈ 45 µM) | 0.78 µg/mL (≈ 1.4 µM) | 0.78 µg/mL (≈ 1.4 µM) | 1.56 µg/mL (≈ 2.81 µM) | 0.78 µg/mL (≈ 1.4 µM) | 3.12 µg/mL (≈ 5.62 µM) | 0.78 µg/mL (≈ 1.4 µM) | 3.12 µg/mL (≈ 5.62 µM) | 6.25 µg/mL (≈ 11.2 µM) | 6.25 µg/mL (≈ 11.2 µM) | 0.39 µg/mL (≈ 0.702 µM) | 0.39 µg/mL (≈ 0.702 µM) | 1.56 µg/mL (≈ 2.81 µM) | activity against kanamycin- and ribostamycin-resistant bacteria [24]: active against some kanamycin- and ribostamycin-resistant bacteria; effectiveness against Klebsiella pneumoniae type 22 #3038 [7]: resistant to butirosin B; MIC [8]: > 100 µg/mL; effectiveness against Escherichia coli K-12 JR 66/W 677 [8]: resistant to butirosin B; MIC [21]: 0.78 µg/mL (≈ 1.4 µM); MIC [22]: 1.56 µg/mL (≈ 2.81 µM); MIC [23]: 3.12 µg/mL (≈ 5.62 µM); MIC (Escherichia coli K-12): 0.78 µg/mL (≈ 1.4 µM); MIC (Sarcina lutea PCI 1001): 50 µg/mL (≈ 90 µM); MIC [19]: 0.78 µg/mL (≈ 1.4 µM); MIC [20]: 50 µg/mL (≈ 90 µM)
4 | NC[C@H]1O[C@H](O[C@H]2[C@H](O[C@@H]3O[C@H](CO)[C@@H](O)[C@H]3O)[C@@H](O)[C@H](N)C[C@@H]2N)[C@H](N)[C@@H](O)[C@@H]1O [Ribostamycin, 5-0-β-D-ribofuranosyl-neamine] | > 100 µg/mL | 1.56 µg/mL (≈ 3.43 µM) | 1.56 µg/mL (≈ 3.43 µM) | > 100 µg/mL | > 100 µg/mL | > 100 µg/mL | > 100 µg/mL | > 100 µg/mL | 3.12 µg/mL (≈ 6.87 µM) | 3.12 µg/mL (≈ 6.87 µM) | > 100 µg/mL | 6.25 µg/mL (≈ 13.8 µM) | 6.25 µg/mL (≈ 13.8 µM) | 1.56 µg/mL (≈ 3.43 µM) | 6.25 µg/mL (≈ 13.8 µM) | 12.5 µg/mL (≈ 27.5 µM) | 50 µg/mL (≈ 110 µM) | 3.12 µg/mL (≈ 6.87 µM) | 1.56 µg/mL (≈ 3.43 µM) | > 100 µg/mL | MIC [8]: > 100 µg/mL; MIC [21]: 3.12 µg/mL (≈ 6.87 µM); MIC [22]: 3.12 µg/mL (≈ 6.87 µM); MIC [23]: > 100 µg/mL; MIC (Escherichia coli K-12): 3.12 µg/mL (≈ 6.87 µM); MIC (Sarcina lutea PCI 1001): 100 µg/mL (≈ 220 µM); MIC [19]: 1.56 µg/mL (≈ 3.43 µM); MIC [20]: > 100 µg/mL
